The values below come from patent US4886821A, “2-pyridinecarbothioamides and pharmaceutical compositions comprising the same useful as anti ulcer agents” (American Home Products Corporation, priority 1987, dated 1989).

SMILES strings stand for the structures.

Experiment [1] concerns gastric mucosal lesions produced by ethanol. Nature of the experiment: Ethanol induced cytotoxicity (gastric mucosal lesions) in rats. Format: in vivo, Male Sprague-Dawley rats. The following applies: for % Inhibition: oral, inhibition of lesion formation vs control; for ED50: Rattus norvegicus, po. As to the method:
The purpose of this assay is to evaluate the effectiveness of the compounds of the present invention in preventing the formation of gastric mucosal lesions produced by ethanol. The assay is based on A. Robert, et al: Gastroenterology, 77: 433-443, 1979.
Male Sprague-Dawley rats weighing between 120-150 grams were fasted for 24 hours prior to the experiment (water ad libitum). At least two hours before dosing, the animals were placed in individual cages with wire grid bottoms and denied access to water.
Ethanol was administered orally at 1 mL per animal. The compounds of the present invention were dissolved in water or suspended in water with 0.5% carboxymethylcellulose and administered orally at a dose based on an appropriate standard giving ED50 to ED75 response of cytoprotective activity.
The rats were randomly divided into groups of equal number, ordinarily 10 to a group. The rats were weighed and the individual weights were recorded. Exactly 1 hour (4 hours in the case of Example 5) prior to the administration of ethanol, the screening group was treated with the compounds of the present invention, and the control group with the vehicle. One hour after administering the ethanol the animals were sacrificed by cervical dislocation. The stomachs were removed, cut along the greater curvature and cleansed of all debris with tap water. The stomachs were set aside and kept moist with saline until the lesions were scored.
Macroscopic lesions on the gastric mucosa were numerically graded. The final grade assigned a stomach was the sum of all the grades.
Streaks longer than 6 mm are graded in multiples of 2 mm.
The degree of cytotoxicity occuring in each group is represented as the mean±S.E.M.
The mean of each treatment group was compared to the control group and expressed as the % inhibition of lesion formation.

Experiment [2] has as its system stress induced ulcers. Nature of the experiment: Stress-induced gastric ulcers in rats. The following applies: Rattus norvegicus, po; orally or parenterally, usually 15 to 45 minutes prior to stress; restraint at 4-5 °C for 3 hours, sodium taurocholate p.o.; read-out: Stress Induced Ulcer ED50. Format: in vivo, Male rats. As to the method:
The purpose of this assay is to evaluate the effectiveness of the compounds of the present invention in preventing stress induced ulcers.
Male rats (280-380 g) were fasted for 18 hours (water available ad libitum) prior to use in experiments. Eight to twelve rats were used per group.
Drug solutions or suspensions were prepared in physiological saline solution. Suspensions were prepared with the aid of 0.5% carboxymethylcellulose in physiological saline solution. Drugs were administered orally or parenterally at predetermined intervals (usually 15 to 45 minutes) prior to stress.
This test procedure is according to the method of Senay et al., Proc. Soc. Exp. Biol. Med. 124, 1221 (1967), modified to produce a more consistent ulcer incidence. After drug administration, the rats were immobilized in metallic restrainers and placed in a cold room at 4°-5° C. for 3 hours before they were killed by cervical dislocation. Each rat was given 20 mg of sodium taurocholate p.o. immediately before placing it in the restrainer. After killing the rats, the stomachs were excised and examined. Macroscopic ulcers were subjectively assigned a grade from 1 to 3 on the basis of increasing size. The number of ulcers in each size category was determined and multiplied by the respective grade; the addition of the resultant values gave the cumulative ulcer score. The average cumulative ulcer score of each treatment group was compared to that of the control group and the percent inhibition of ulcer formation as calculated. When the responses obtained were directly proportional to the doses employed, ED50 values were determined from the dose-response curves obtained.

Experiment [3] concerns ethanol induced ulcer. The following applies: Robert et al., Scand. J. Gastroenterol. 1984; cited from earlier work.
The mark [4] stands for this setting: 10 mg/kg, 1 hour prior to ethanol.

Take `Fc1ccccc1NC(=S)c1ccccn1` [Example 5, N-(2-Fluorophenyl)-2-pyridinecarbothioamide]: the “% Inhibition” value in experiment [1] (100 mg/kg, 4 hours prior to ethanol) is on record as 69%.

As to `Fc1ccc(NC(=S)c2ccccn2)c(F)c1` [Example 2, N-(2,4-Difluorophenyl)-2-pyridinecarbothioamide], the ED50 amounted to 4.8 mg/kg in experiment [1] and 38 mg/kg in experiment [2].

Take `Fc1ccc(NC(=S)c2ccccn2)cc1` [Example 3, N-(4-Fluorophenyl)-2-pyridinecarbothioamide]: the ED50 in experiment [1] came to 2.5 mg/kg; in experiment [2], 3.8 mg/kg.

With `Fc1cccc(NC(=S)c2ccccn2)c1` [Example 4, N-(3-Fluorophenyl)-2-pyridinecarbothioamide], the ED50 in experiment [1] worked out at 1 mg/kg.

`CN(C(=S)c1ccccn1)c1cc(F)cc(F)c1` [Example 7, N-(3,5-Difluorophenyl)-N-methyl-2-pyridinecarbothioamide]: the “% Inhibition” value in experiment [1] (25 mg/kg, 1 hour prior to ethanol) amounted to 40%.

As to `CCN(C(=S)c1ccccn1)c1cc(F)cc(F)c1` [Example 8, N-(3,5-Difluorophenyl)-N-ethyl-2-pyridinecarbothioamide], the “% Inhibition” value in experiment [1] (setting [4]) was found to be 13%.

`CN/C(=N/CCSCc1nc[nH]c1C)NC#N` [cimetidine]: the “protection in ethanol induced ulcer model” value in experiment [3] is given as “do not protect in this model”.

As to `CN(C(=S)c1ccccn1)c1cccc(F)c1` [Example 6, N-(3-Fluorophenyl)-N-methyl-2-pyridinecarbothioamide], the “% Inhibition” value in experiment [1] (setting [4]) turned out to be 31%.

With `Fc1cccc(F)c1NC(=S)c1ccccn1` [Example 9, N-(2,6-Difluorophenyl)-2-pyridinecarbothioamide], the median effective dose (ED50) came out at 0.38 mg/kg in experiment [1] and 1.8 mg/kg in experiment [2].

Regarding `Fc1cccc(NC(=S)c2ccccn2)c1F` [Example 10, N--(2,3-difluorophenyl)-2-pyridinecarbothioamide], the ED50 in experiment [1] stood at 1 mg/kg; in experiment [2], 0.9 mg/kg.

The molecule `Fc1ccc(F)c(NC(=S)c2ccccn2)c1` [Example 12, N--(2,5-difluorophenyl)-2-pyridinecarbothioamide] displayed an ED50 in experiment [1] of 6.2 mg/kg.

On to `CC(C)[N+](C)(CCOC(=O)C1c2ccccc2Oc2ccccc21)C(C)C` [propantheline bromide], for which the “protection in ethanol induced ulcer model” value in experiment [3] was “do not protect in this model”.
